Reference: ChEMBL document CHEMBL5357083 (ACS Med Chem Lett, 2024)

What was measured:
[1] = in vitro; details: mouse, liver microsomes
[2] = in vitro; details: dog, MDCK-MDR1

Which results are given for Brc1ccc2[nH]nc(C3=CCCNC3)c2c1?
CLhep predicted at […], 1 µM [1]: 57 mL/min/kg; Papp A→B at 5 µM [2]: 7.9 ×10⁻⁶ cm/s
